# Assay results published in patent US20240238246A1, “METHODS FOR PREVENTING OR SLOWING THE PROGRESSION OF COGNITIVE DECLINE OR IMPAIRMENT IN SUBJECTS” (AGENEBIO, INC., priority 2023, published 2024).
# What was measured:
# [1] = tested on: entorhinal cortex (ERC) and Brodmann area 35 (BA35) volume in APOE-4 non-carriers; assay: Volumetric MRI of medial temporal lobe subregions (ASHS-T1 segmentation) in the phase IIb study; type: in vivo, human; settings: APOE-4 non-carriers (n=26), baseline to week 78
# Text: Brain regions of interest were selected prior to the trial apriori based on the location of post-mortem tau accumulation in the early stage of AD (Braak et al., Acta Neuropathologica, 112(4): 389-404 (2006); Braak & Braak, Acta Neuropathologica, 80(5): 479-486 (1990)) and robust atrophy in entorhinal cortex volume in the AD. For this purpose, the Automated Segmentation of Hippocampal Subfields (ASHS) software (Xie et al., Hum Brain Mapp. 40:3431-3451 (2019)) was used. Regions provided by this software include the left and right entorhinal cortex (ERC), Brodmann area 35 (BA35), which largely overlaps with TEC (Braak et al., Acta Neuropathologica, 112(4): 389-404 (2006); Braak & Braak, Acta Neuropathologica, 80(5): 479-486 (1990))) and includes a portion of the perirhinal cortex and BA36, which predominantly encompasses the perirhinal cortex (Xie et al., 2019). High-resolution T1-weighted MRI images of the subjects' brain were collected at baseline and 78 weeks using an MRI scanner. Automatic segmentation was performed using the T1-weighted MRI images using the ASHS-T1 open-source software and see, also Xie et al., Hum Brain Mapp. 40:3431-3451 (2019). […] Volumetric and thickness measurements of the ERC and BA35 were extracted for each subject. […]
# [2] = cited from earlier work
# [3] = tested on: subjects with MCI due to Alzheimer's disease; assay: Phase IIb placebo-controlled 78-week study, Clinical Dementia Rating-Sum of Boxes (CDR-SB); type: in vivo, human
# Procedure: (§1) This example describes a phase IIb multicenter, randomized, double-blind, placebo-controlled study evaluating the efficacy and safety of a low-dose levetiracetam, 220 mg, extended-release tablet on slowing progression of MCI due to Alzheimer's disease (prodromal Alzheimer's disease), the results being evaluated using the well-recognized and accepted Clinical Dementia Rating-Sum of Boxes (CDR-SB) scores.
# (§2) Subjects for this study were between 55 and 85 years old (inclusive) in good general health, willing and able to consent and to participate for the duration of the study, having an eighth-grade education or good work history sufficient to exclude mental retardation, having visual and auditory acuity adequate for neuropsychological testing, and having proficient fluency of the native local language to participate in all the neuropsychological test assessments. The clinical assessments of 63 participants were used for the analyses.
# Blood samples were taken from each subject to determine APOE4 carrier status. Genomic DNA was prepared from the blood samples according to standard procedures. Quality of the genomic DNA samples were quantified using Optical Density and DNA purity was calculated. Using extracted genomic DNA as a template, locus specific DNA fragments were amplified by polymerase chain reaction (PCR). Purified PCR products were used as templates for sequencing reactions. According to the chain terminating methodology of Sanger et al (Sanger F, Nicklen S, Coulson A R. DNA sequencing with chain-terminating inhibitors. Proc Natl Acad Sci USA. 1977 December; 74(12):5463-7), analysis of DNA sequence was based on the termination of a growing DNA strand due to incorporation of a dye labeled ddNTP by the DNA polymerase. The resulting dye-labeled product was detected using an automated sequencing platform. Data was analyzed using the software SEQPATIENT from JSI-medical Systems®.
# (§3) The study included up to a 5-week screening period consisting of 3 visits and a 78-week treatment period consisting of 10 visits (1 baseline visit, 3 telephone call visits, and 6 clinic visits). The primary endpoint of the study was the analysis of the change in CDR-SB score from baseline to 78 weeks. Secondary endpoints included the analysis of the change in Functional Activities Questionnaire (FAQ) score from baseline to 78 weeks. Subjects received a low-dose levetiracetam, 220 mg, extended-release tablet or placebo in the morning in identically appearing extended release, one unit oral dosage forms.
# CDR-SB testing was performed using standard methods. Briefly, subjects were tested using the following six categories or “boxes”: Memory, Orientation, Judgment and Problem Solving, Community Affairs, Home and Hobbies, and Personal Care. CDR-SB scores were calculated by adding the box scores. The total score ranges from 0 to 18 with a higher scores indicating more impairment). Absolute values and changes from baseline in CDR-SB were summarized using descriptive statistics and presented by APOE4 non-carrier status. Table 3 summarizes the statistical analysis wherein each cell contains a point estimate followed by a 95% Confidence Interval (CI).
# [4] = tested on: subjects with MCI due to Alzheimer's disease; assay: Phase IIb placebo-controlled 78-week study, Functional Activities Questionnaire (FAQ) score; type: in vivo, human
# Procedure: as §1, §2, §3
# FAQ scores were obtained to measure the functional ability of individuals over time. Briefly, FAQ measures instrumental activities of daily life, such as preparing meals and balancing a check book as these functional changes are found earlier in the dementia process compared to more basic activities. The Questionnaire comprises 10 questions which are answered using a 0-3 scoring system for each question with 0 being normal and 3 being dependent on someone else to complete the task. […]
# [5] = APOE-4 non-carrier subgroup (n=26)
smiles,measurement,setting,value
"CC[C@@H](C(N)=O)N1CCCC1=O [levetiracetam, (2S)-2-(2-oxopyrrolidin-1-yl)butanamide]",Left ERC mean volume change,[1]; p=0.048 vs placebo,−1.878%
same,Right BA35 mean volume change,[1]; p=0.094 vs placebo,−0.789%
same,Time of peak plasma concentrations,[2]; following oral administration,about 1 hour
same,Plasma half-life,[2]; in vivo,approximately 7±1 hour
same,Time to achieve steady state,[2]; multiple twice-daily dosing,2 days
same,Absorption after oral administration,[2]; oral administration,rapidly and almost completely absorbed
same,Effect of food on bioavailability,[2]; oral administration,not affected by food
same,"CDR-SB Treatment Effect (Difference) versus placebo (point estimate, 95% CI)","[3]; APOE4 non-carriers (n = 63), 78 weeks","−0.56 (CI: −1.90, 0.47)"
same,"CDR-SB change score (point estimate, 95% CI)","[3]; APOE4 non-carriers (n = 63), baseline to 78 weeks, 220 mg extended-release tablet","0.96 (CI: 0.08, 2.01)"
same,Mean CDR-SB change score at Week 78,[3]; APOE-4 carrier subgroup (n=54),0.95
same,Estimated average treatment effect on CDR-SB change score,"[3]; APOE-4 carrier subgroup, Week 78, versus placebo",−0.10
same,Mean CDR-SB change from baseline at Week 78,[3]; [5],0.68
same,Estimated average treatment effect on CDR-SB change score,"[3]; APOE-4 non-carrier subgroup, Week 78, versus placebo",−0.45
same,Mean CDR-SB change score at Week 78,[3]; entire study population,1.12
same,Estimated average treatment effect on CDR-SB change score,"[3]; entire study population, Week 78, versus placebo (p=0.71)",−0.10
same,Mean FAQ total score change from baseline to week 78,[4]; APOE-4 carrier subgroup (n=54),5
same,Mean FAQ total score change from baseline to week 78,[4]; [5],1.8
same,Estimated mean FAQ score from baseline at 78 weeks (95% CI),[4]; entire study population,"3.82 (95% CI: 2.10, 5.17)"
